Data from patent US9890149B2 (NuBridge BioSciences, priority 2015, dated 2018).

These molecules were tested against T1, ΔF508 mutant CFTR (Homo sapiens, UniProt P13569, DEL508-508) (assay: Fluorescence Assay (halide-sensitive YFP, iodide influx) for ΔF508 mutant CFTR activity). Conditions: FRT cells expressing ΔF508-CFTR and YFP-H148Q/I152L, incubated 27° C. 20-24 h; forskolin (20 μM) and test compounds (20 μM) for 20 min; rate of fluorescence quenching by I−, normalized to forskolin alone.
T1 construct: expressed in transfected cells; host or cells: Fischer rat thyroid (FRT) cells
T1 sequence (P13569 with tags, fused parts or gaps DEL508-508): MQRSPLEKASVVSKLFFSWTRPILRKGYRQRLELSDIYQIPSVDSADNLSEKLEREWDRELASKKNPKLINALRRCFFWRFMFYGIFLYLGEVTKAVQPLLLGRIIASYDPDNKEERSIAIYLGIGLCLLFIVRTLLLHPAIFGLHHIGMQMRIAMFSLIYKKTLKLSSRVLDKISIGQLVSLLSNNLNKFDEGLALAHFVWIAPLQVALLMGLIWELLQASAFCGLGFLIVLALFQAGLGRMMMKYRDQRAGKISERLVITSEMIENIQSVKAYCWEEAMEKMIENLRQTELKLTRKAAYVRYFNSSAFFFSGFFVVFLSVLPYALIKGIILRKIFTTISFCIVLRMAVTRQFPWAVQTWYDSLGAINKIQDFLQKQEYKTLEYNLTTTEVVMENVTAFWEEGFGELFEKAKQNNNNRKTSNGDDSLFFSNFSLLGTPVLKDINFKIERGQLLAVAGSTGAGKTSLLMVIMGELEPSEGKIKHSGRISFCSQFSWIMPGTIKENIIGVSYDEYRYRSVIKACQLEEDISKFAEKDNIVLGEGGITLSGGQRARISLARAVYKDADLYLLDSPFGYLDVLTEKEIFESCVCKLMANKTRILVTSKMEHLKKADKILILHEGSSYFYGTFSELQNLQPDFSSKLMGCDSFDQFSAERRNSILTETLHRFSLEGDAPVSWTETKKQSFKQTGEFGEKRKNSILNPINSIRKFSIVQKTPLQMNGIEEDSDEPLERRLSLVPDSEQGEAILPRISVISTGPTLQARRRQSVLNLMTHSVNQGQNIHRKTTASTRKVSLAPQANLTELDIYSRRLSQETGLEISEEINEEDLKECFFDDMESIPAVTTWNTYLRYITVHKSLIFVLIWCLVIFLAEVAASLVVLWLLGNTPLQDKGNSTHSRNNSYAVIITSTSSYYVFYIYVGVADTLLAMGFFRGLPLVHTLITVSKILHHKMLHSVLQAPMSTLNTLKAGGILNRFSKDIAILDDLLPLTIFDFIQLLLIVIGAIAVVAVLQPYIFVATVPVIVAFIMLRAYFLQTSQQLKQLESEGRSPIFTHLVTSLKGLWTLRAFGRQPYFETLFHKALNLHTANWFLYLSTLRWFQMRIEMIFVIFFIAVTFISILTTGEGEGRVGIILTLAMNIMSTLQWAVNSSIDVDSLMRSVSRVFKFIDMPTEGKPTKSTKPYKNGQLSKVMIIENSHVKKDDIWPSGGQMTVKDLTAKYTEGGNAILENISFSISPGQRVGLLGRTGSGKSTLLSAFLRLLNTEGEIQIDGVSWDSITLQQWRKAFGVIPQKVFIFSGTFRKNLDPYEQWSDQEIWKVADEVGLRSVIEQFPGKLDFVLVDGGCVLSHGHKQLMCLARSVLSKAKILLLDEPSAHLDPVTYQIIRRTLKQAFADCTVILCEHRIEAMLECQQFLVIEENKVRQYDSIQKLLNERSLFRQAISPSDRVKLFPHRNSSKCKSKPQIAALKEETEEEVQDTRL
Assay type: cell-based
Description: The ΔF508 mutant CFTR activities of the CFTR modulators are detected using the Fluorescence Assay developed by Pedemonte (Pedemonte N., et al., Antihypertensive 1,4-dihydropyridines as correctors of the cystic fibrosis transmembrane conductance regulator channel gating defect caused by cystic fibrosis mutations, Mol. Pharmacol., 2005, 68, 1736-1746).
Fischer rat thyroid (FRT) cells, stably transfected with ΔF508 were retransfected with the YFP-H148Q/I152L fluorescent protein. The cells were plated (100,000 cells/well) on black 96-well microplates with clear plastic bottom (Corning Life Sciences, Acton, Mass.).
The 96-well microplates containing FRT cells expressing F508-CFTR and the halide-sensitive YFP were incubated at 27° C. for 20 to 24 h to allow rescue of the mutant protein to the plasma membrane. After incubation, cells were washed with PBS (containing 137 mM NaCl, 2.7 mM KCl, 8.1 mM Na2HPO4, 1.5 mM KH2PO4, 1 mM CaCl2, and 0.5 mM MgCl2) and stimulated for 20 min with forskolin (20 μM) and test compounds (20 μM) in a final volume of […] Microplates were then transferred to a microplate reader for CFTR activity determination.

CFTR Activity | SMILES
0.6 | O=C(Nc1cnsc1OCC1CCOCC1)c1ccc(C(F)(F)F)c(-c2c(F)cccc2F)n1 [Example 47]
0.7 | Cl.Nc1cc(C(F)(F)F)c(-c2c(F)cccc2F)nc1C(=O)Nc1cnsc1OC1CCCNCC1 (stereo not shown) [Example 48, 3-amino-N-(5-(azepan-4-yloxy)isothiazol-4-yl)-6-(2,6-difluorophenyl)-5-(trifluoromethyl)picolinamide hydrochloride]
0.2 | Cl.Nc1cc(C(F)(F)F)c(-c2c(F)cccc2F)nc1C(=O)Nc1cnsc1OCC1CCNCC1 [Example 49, 3-amino-6-(2,6-difluorophenyl)-N-(5-(piperidin-4-ylmethoxy)isothiazol-4-yl)-5-(trifluoromethyl)picolinamide hydrochloride]
4.6 | Cl.Nc1cc(C(F)(F)F)c(-c2c(F)cccc2F)nc1C(=O)Nc1cnsc1O[C@H]1CC[C@H](N)CC1 [Example 52, 3-amino-N-(5-(((1r,4r)-4-aminocyclohexyl)oxy)isothiazol-4-yl)-6-(2,6-difluorophenyl)-5-(trifluoromethyl)picolinamide hydrochloride]
0.5 | Cl.NCC(CCl)COc1sncc1NC(=O)c1ccc(C(F)(F)F)c(-c2c(F)cccc2F)n1 (stereo not shown) [Example 54, N-(5-(3-amino-2-(chloromethyl)propoxy)isothiazol-4-yl)-6-(2,6-difluorophenyl)-5-(trifluoromethyl)picolinamide hydrochloride]
0.5 | Cl.NCC(CCl)COc1sncc1NC(=O)c1nc(-c2c(F)cccc2F)c(C(F)(F)F)cc1N (stereo not shown) [Example 55, 3-amino-N-(5-(3-amino-2-(chloromethyl)propoxy)isothiazol-4-yl)-6-(2,6-difluorophenyl)-5-(trifluoromethyl)picolinamide hydrochloride]
2.3 | Cl.NCC(CO)COc1sncc1NC(=O)c1nc(-c2c(F)cccc2F)c(C(F)(F)F)cc1N (stereo not shown) [Example 59, 3-amino-N-(5-(3-amino-2-(hydroxymethyl)propoxy)isothiazol-4-yl)-6-(2,6-difluorophenyl)-5-(trifluoromethyl)picolinamide hydrochloride]

More lines, now with the values behind:

SMILES | CFTR Activity
Cl.N[C@H]1CC[C@H](Oc2sncc2NC(=O)c2ccc(C(F)(F)F)c(-c3c(F)cccc3F)n2)CC1 [Example 46, N-(5-(((1r,4r)-4-aminocyclohexyl)oxy)isothiazol-4-yl)-6-(2,6-difluorophenyl)-5-(trifluoromethyl)picolinamide hydrochloride] | 1
Cl.Nc1cc(C(F)(F)F)c(-c2c(F)cccc2F)nc1C(=O)Nc1cnsc1OCC1CNC1 [Example 50, 3-amino-N-(5-(azetidin-3-ylmethoxy)isothiazol-4-yl)-6-(2,6-difluorophenyl)-5-(trifluoromethyl)picolinamide hydrochloride] | 0.1
Cl.Nc1cc(C(F)(F)F)c(-c2c(F)cccc2F)nc1C(=O)Nc1cnsc1OC1CCNCC1 [Example 51, 3-amino-6-(2,6-difluorophenyl)-N-(5-(piperidin-4-yloxy)isothiazol-4-yl)-5-(trifluoromethyl)picolinamide hydrochloride] | 0.7
Cl.Nc1cc(C(F)(F)F)c(-c2ccccc2)nc1C(=O)Nc1cnsc1OC1CCNC1 (stereo not shown) [Example 53, 3-amino-6-phenyl-N-(5-(pyrrolidin-3-yloxy)isothiazol-4-yl)-5-(trifluoromethyl)picolinamide hydrochloride] | 0.4
Cl.NCC(CO)COc1sncc1NC(=O)c1ccc(F)c(-c2c(F)cccc2F)n1 (stereo not shown) [Example 56, N-(5-(3-amino-2-(hydroxymethyl)propoxy)isothiazol-4-yl)-6-(2,6-difluorophenyl)-5-fluoropicolinamide hydrochloride] | 0.5
Cl.NCC(CO)COc1sncc1NC(=O)c1nc(-c2c(F)cccc2F)c(F)cc1N (stereo not shown) [Example 57, 3-amino-N-(5-(3-amino-2-(hydroxymethyl)propoxy)isothiazol-4-yl)-6-(2,6-difluorophenyl)-5-fluoropicolinamide hydrochloride] | 1.8
Cl.NCC(CO)COc1sncc1NC(=O)c1ccc(C(F)(F)F)c(-c2c(F)cccc2F)n1 (stereo not shown) [Example 58, N-(5-(3-amino-2-(hydroxymethyl)propoxy)isothiazol-4-yl)-6-(2,6-difluorophenyl)-5-(trifluoromethyl)picolinamide hydrochloride] | 2
Cl.NC1CCCC(Oc2sncc2NC(=O)c2ccc(C(F)(F)F)c(-c3c(F)cccc3F)n2)C1 (stereo not shown) [Example 60, N-(5-((3-aminocyclohexyl)oxy)isothiazol-4-yl)-6-(2,6-difluorophenyl)-5-(trifluoromethyl)picolinamide hydrochloride] | 0.1
Cl.Nc1cc(C(F)(F)F)c(-c2c(F)cccc2F)nc1C(=O)Nc1cnsc1OC1CCCC(N)C1 (stereo not shown) [Example 61, 3-amino-N-(5-((3-aminocyclohexyl)oxy)isothiazol-4-yl)-6-(2,6-difluorophenyl)-5-(trifluoromethyl)picolinamide hydrochloride] | 0.4
